Data set [1] deals with experimental autoimmune encephalomyelitis (EAE) model. The note with it: mice; cited from earlier work.
Data set [2] is described as follows: Bioavailability by oral administration. It counts as in vivo.
Data set [3] deals with experimental autoimmune encephalomyelitis (EAE) model. Nature of the data set: Pharmacodynamics on EAE model (MOG 35-55 induced), EAE score and H&E/LFB staining of cervical spinal cord. It counts as in vivo, C57BL/6 mice. The settings on record: for incidence of EAE: intragastric administration (FIG. 5, FIG. 6).
The subject of data set [4] is Mice. Nature of the data set: Single-dose toxicity in mice. It counts as in vivo. The note with it: for deaths: three males and three females. On the procedure: Mice were divided into four groups for each having three males and three females and treated by compound 1 at a single-dose of 200, 600, 1800 and 5400 mg/kg, respectively.
Data set [5] concerns Sprague Dawley rats. Nature of the data set: 7-day repeated intragastric toxicity in rats. It counts as in vivo. The settings on record: intragastrically daily at 75, 150, 300 mg/kg for 7 consecutive days, 3 males and 3 females per group. As for the experimental part:
Sprague Dawley rats, each group having 3 males and 3 females were administrated intragastrically daily at 75, 150, 300 mg/kg respectively for 7 consecutive days.

Setting [6] is: 30 mg/kg/day intragastrically, vs EAE model group.
Setting [7] is: crystal type A, 15 mg/kg once daily oral gavage, vs EAE model group.

Structures can show the parent of a compound that is named as a salt.

With `C=C1C(=O)O[C@H]2C[C@@H](C)[C@@H]3[C@@H](OC(C)=O)C[C@H](O)[C@@]3(C)[C@@H](OC(C)=O)[C@H]12` [Inula lineariifolia lactone A], the “therapeutic effect on EAE model” value in data set [1] is “good therapeutic effect”. Besides, in data set [2], the “bioavailability by oral administration” value is recorded as “low”.
For the compound `CC(=O)O[C@H]1C[C@H](OC(C)=O)[C@]2(C)[C@@H]1[C@H](C)C[C@@H]1OC(=O)[C@H](CN(C)C)[C@H]1[C@@H]2OC(C)=O` [Compound I, dimethylamine 4-O-acetyl inula lineariifolia lactone A], the “course of EAE” value in data set [3] (30 mg/kg) was “ameliorated”. Moreover, in data set [3] (30 mg/kg/day intragastrically, from day 0 of immunization, 30 days), the “disease severity (EAE score)” value is recorded as “reduced”. The “onset of EAE” value in data set [3] (30 mg/kg/day intragastrically, from day 0 of immunization, 30 days, in 0.5% CMC-Na) was “delayed”. Besides, in data set [3] (setting [6]), the “arrangement of the organization (blood vessel and tissue)” value was “basically returned to normal condition”; the “demyelination (LFB staining)” value is “significantly reduced”; the “inflammatory cells (H&E analysis)” value is “reduced”. Further, the “incidence of EAE” value in data set [3] is on record as “significantly reduce”. Besides, the deaths entry in data set [4] (single dose 1800 mg/kg) was “One female mouse died”. For the same compound, the deaths result in data set [4] (single dose 5400 mg/kg) is recorded as “Five mice except one male mouse died”. Besides, in data set [4] (single dose 200 and 600 mg/kg, three males and three females per group), the toxic reactions result is “No obvious toxic reactions were observed”.
As for `CC(=O)O[C@H]1C[C@H](OC(C)=O)[C@]2(C)[C@@H]1[C@H](C)C[C@@H]1OC(=O)[C@H](CN(C)C)[C@H]1[C@@H]2OC(C)=O` [Compound IV, dimethylamine 4-O-acetyl inula lineariifolia lactone A fumarate], the “onset of EAE” value in data set [3] (crystal type A in injection water, 15 mg/kg once daily oral gavage from day 0) was “delayed”. Further, in data set [3] (crystal type A, 15 mg/kg once daily oral gavage), the “course of EAE” value was “ameliorated”. The “disease severity (EAE score)” value in data set [3] (crystal type A, 15 mg/kg once daily oral gavage from day 0) is “reduced”. Also, the “demyelination (LFB staining)” value in data set [3] (crystal type A, 15 mg/kg once daily oral gavage, vs EAE model control) is listed as “significant lower”. Further, in data set [3] (setting [7]), the “arrangement of the organization (blood vessel and tissue)” value was “basically returned to normal condition”; the “inflammatory cells (H&E analysis)” value was “reducing”. Also, the “incidence of EAE” value in data set [3] is “significantly reduce”. Moreover, the toxic reactions result in data set [5] is “No obvious toxic reactions were observed”.
